Where “and” joins values, the source holds several entries; their conditions need not be identical. Equal values may be shown once. Read-outs that look alike come from different tables or passages of the source.
Experiments:
β-secretase(BACE) [1] = biological target: T1, β-secretase(BACE) (Homo sapiens, UniProt P56817); experiment: BACE FS1% Inhibition Assay; type: biochemical; conditions: FS1 substrate
T1 construct: purchased Panvera
Outline: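 Human BACE (4 μg/mL working solution) preincubated 20 min at room temperature with compound, then FS1 substrate (300 μg/mL working solution) added and incubated 1 h at room temperature. Percent inhibition calculated at each compound concentration against blank and vehicle controls.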

β-secretase(BACE) [2] = biological target: T1, β-secretase(BACE); experiment: BACE Assay-2 (FS1 substrate, IC50 and Ki); type: biochemical; conditions: procedure of Example 159, FS1 substrate; read-out: Ki μM (159)
Protocol: The FS1-substrate stock solution was prepared in DMSO as a 10 mg/mL solution. The FS1-substrate working solution was prepared by diluting the 10 mg/mL stock solution with substrate assay buffer to a final concentration of 300 μg/mL. The β-secretase (BACE) working solution was prepared by diluting a 0.83 mg/mL BACE stock solution with enzyme assay buffer to a final concentration of 4 μg/mL.
Test compounds were dissolved in DMSO at 10 mM.
The procedure for this assay was as follows: 15 μL of BACE working solution was pipetted into each well of a 96-well plate. To each well was then pipetted 2 μL of test compound at the selected concentration. Test compound and BACE were then mixed with a pipettor and incubated for 20 min at room temperature. To each well was then added 10 μL of the FS1 substrate working solution.
The procedure for the positive control was as follows: 15 μL of BACE working solution was pipetted into each well to be used as a positive control. To each well was then pipetted 2 μL of vehicle. Vehicle and BACE were then mixed with a pipettor and incubated for 20 min at room temperature. To each well was then added 10 μL of the FS1 substrate working solution.
For test compounds, measured at multiple concentrations, the measured T0 and T60 values were used to calculate an IC50 value using Graphpad Software (or PIR). For test compounds, Ki inhibition was determined as follows: For each compound concentration and positive control, rate of cleavage of substrate (Vi, where i=compound concentration in μM) was determined as Δ Fluorescence/Δ time (min). Cleavage rates (Vi) were plotted as a function of inhibitor concentration in μM [I]. The Ki was then determined by fitting the following equation to the graph of [I] vs Vi Y=aVmax/(50+24*(1+X/Ki)),

[3] = 0.3 μM test compound, read-out: % Inhibition (FS) 0.3 μM
[4] = 1 μM test compound, read-out: % Inhibition (FS) 1 μM
[5] = 3 μM test compound, read-out: % Inhibition (FS) 3 μM
[6] = 0.3 μM test compound, read-out: % Inhibition (FS)
[7] = 1 μM test compound, read-out: % Inhibition (FS)
[8] = 3 μM test compound, read-out: % Inhibition (FS)

T1 sequence (P56817 46-501): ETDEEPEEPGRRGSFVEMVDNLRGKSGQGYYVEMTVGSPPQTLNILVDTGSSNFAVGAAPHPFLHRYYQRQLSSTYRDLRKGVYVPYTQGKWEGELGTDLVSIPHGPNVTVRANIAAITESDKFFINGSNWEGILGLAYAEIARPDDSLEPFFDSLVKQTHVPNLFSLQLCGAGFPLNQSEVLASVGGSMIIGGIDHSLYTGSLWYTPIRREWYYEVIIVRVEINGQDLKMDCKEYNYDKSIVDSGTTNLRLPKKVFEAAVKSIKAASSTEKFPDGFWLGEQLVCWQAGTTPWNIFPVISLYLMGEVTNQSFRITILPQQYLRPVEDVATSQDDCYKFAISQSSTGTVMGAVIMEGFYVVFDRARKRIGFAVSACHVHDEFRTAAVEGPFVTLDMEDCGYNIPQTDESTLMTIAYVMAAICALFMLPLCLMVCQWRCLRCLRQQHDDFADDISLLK

Row | Structure (SMILES) | Ki (β-secretase(BACE) [2]) | inhibition at 0.3 µM (β-secretase(BACE) [1]; [6]) | inhibition at 1 µM (β-secretase(BACE) [1]; [7]) | inhibition at 3 µM (β-secretase(BACE) [1]; [8]) | also measured
1 | CC(C)CCC(=O)NCCN1Cc2cc(-c3ccccc3F)ccc2N=C1N [Compound 647] | 0.033 µM | – | – | – | inhibition at 0.3 µM (β-secretase(BACE) [1]; [3]): 79%; inhibition at 1 µM (β-secretase(BACE) [1]; [4]): 100%; inhibition at 3 µM (β-secretase(BACE) [1]; [5]): 113%
2 | CC(C)CCC(=O)NCCN1Cc2cc(-c3ccccc3Cl)ccc2N=C1N [Compound 654] | 0.046 µM | – | – | – | inhibition at 0.3 µM (β-secretase(BACE) [1]; [3]): 83%; inhibition at 1 µM (β-secretase(BACE) [1]; [4]): 102%; inhibition at 3 µM (β-secretase(BACE) [1]; [5]): 111%
3 | Cc1ccccc1-c1ccc2c(c1)CN(CCNC(=O)C1CCCC1)C(N)=N2 [Compound 657, Cyclopentanecarboxylic acid [2-(2-amino-6-o-tolyl-4H-quinazolin-3-yl)-ethyl]-amide] | 0.032 µM | – | – | – | inhibition at 0.3 µM (β-secretase(BACE) [1]; [3]): 88%; inhibition at 1 µM (β-secretase(BACE) [1]; [4]): 103%; inhibition at 3 µM (β-secretase(BACE) [1]; [5]): 111%
4 | COC1CCCC(C(=O)NCCN2Cc3cc(-c4ccccc4Cl)ccc3N=C2N)C1 (stereo not shown) [Compound 692] | 0.13 µM | 46% | 90% | 116% | –
5 | Cc1ccccc1-c1ccc2c(c1)CN(CCNC(=O)C1CCOCC1)C(N)=N2 [Compound 693] | 0.17 µM | 47% | 83% | 109% | –
6 | CN(C(=O)CC[C@@H](C1CCOCC1)N1Cc2cc(Oc3ccccc3)ccc2N=C1N)C1CCCCC1 [Compound 709, (S)-enantiomer of 4-(2-Amino-6-phenoxy-4H-quinazolin-3-yl)-N-cyclohexyl-N-methyl-4-(tetrahydro-pyran-4-yl)-butyramide] | 0.0065 µM | 141% | 143% | 139% | –
7 | CN(C(=O)CCC(C1CCCCC1)N1Cc2cc(Oc3ccccc3)ccc2N=C1N)C1CCC(O)CC1 (stereo not shown) [Compound 712] | 0.1 µM | 39% | 104% | 134% | –
8 | CN(C(=O)CC[C@@H](C1CCCCC1)N1Cc2cc(Oc3ccccc3)ccc2N=C1N)C1CCC(C(=O)O)CC1 (stereo partly drawn) [Compound 714, 4-{[4-(2-Amino-6-phenoxy-4H-quinazolin-3-yl)-4-(S)-cyclohexyl-butyryl]-methyl-amino}-cyclohexanecarboxylic acid] | 0.029 µM and 0.022 µM | 100% | 126% | 138% | % Inhibition (FS) (β-secretase(BACE) [1]; 0.3 μM test compound, 0.3 µM): 98%; % Inhibition (FS) (β-secretase(BACE) [1]; 1 μM test compound, 1 µM): 129%; % Inhibition (FS) (β-secretase(BACE) [1]; 3 μM test compound): 138%
9 | COc1ccccc1-c1ccc2c(c1)CN([C@@H](CCC(=O)N(C)CCC#N)C1CCCCC1)C(N)=N2 [Compound 720] | 0.3 µM | 72% | 93% | 138% | –
10 | COc1ccccc1-c1ccc2c(c1)CN([C@@H](CCC(=O)N(C)CCc1ccccc1)C1CCCCC1)C(N)=N2 [Compound 721, 4-[2-Amino-6-(2-methoxy-phenyl)-4H-quinazolin-3-yl]-4-(S)-cyclohexyl-N-methyl-N-phenethyl-butyramide] | 0.22 µM | 60% | 66% | 127% | –
11 | Cc1cc(CN(C)C(=O)CC[C@@H](C2CCCCC2)N2Cc3cc(-c4ccccc4F)ccc3N=C2N)on1 [Compound 723] | 0.23 µM | 47% | 63% | 111% | –
12 | CN(CCC#N)C(=O)CC[C@@H](C1CCCCC1)N1Cc2cc(-c3ccccc3F)ccc2N=C1N [Compound 725] | 0.45 µM | 33% | 74% | 126% | –
13 | CN(CCc1ccccc1)C(=O)CC[C@@H](C1CCCCC1)N1Cc2cc(-c3ccccc3F)ccc2N=C1N [Compound 727] | 0.43 µM | – | – | – | % Inhibition (FS) (β-secretase(BACE) [1]; 0.3 μM test compound): 46%; % Inhibition (FS) (β-secretase(BACE) [1]; 1 μM test compound): 80%; % Inhibition (FS) (β-secretase(BACE) [1]; 3 μM test compound): 137%
14 | CCCN1Cc2cc(Oc3cccc(NCc4ccc(C)cc4)c3)ccc2N=C1N [Compound 729] | 0.33 µM | 33% | 61% | 100% | –
15 | CN(C(=O)CC[C@@H](C1CCC2(CC1)OCCO2)N1Cc2cc(Oc3ccccc3)ccc2N=C1N)C1CCCCC1 [Compound 730, S-enantiomer of 4-(2-Amino-6-phenoxy-4H-quinazolin-3-yl)-N-cyclohexyl-4-(1,4-dioxa-spiro[4.5]dec-8-yl)-N-methyl-butyramide] | 0.054 µM | 93% | 109% | 114% | –
16 | CN(C(=O)CC[C@@H]([C@H]1CC[C@@H](O)CC1)N1Cc2cc(Oc3ccccc3)ccc2N=C1N)C1CCCCC1 [Compound 731, 4-(2-Amino-6-phenoxy-4H-quinazolin-3-yl)-N-cyclohexyl-4-(cis-4-hydroxy-cyclohexyl)-N-methyl-butyramide] | 0.087 µM | 56% | 114% | 132% | –
17 | CN(C(=O)CC[C@@H](C1CCC(=O)CC1)N1Cc2cc(Oc3ccccc3)ccc2N=C1N)C1CCCCC1 [Compound 732, (S)-enantiomer of 4-(2-Amino-6-phenoxy-4H-quinazolin-3-yl)-N-cyclohexyl-N-methyl-4-(4-oxo-cyclohexyl)-butyramide] | 0.01 µM | 135% | 135% | 133% | –
18 | NC1=Nc2ccc(Oc3ccccc3)cc2CN1[C@@H](CCC(=O)N(CCO)C1CCCCC1)C1CCCCC1 [Compound 736, (S)-enantiomer of 4-(2-Amino-6-phenoxy-4H-quinazolin-3-yl)-4,N-dicyclohexyl-N-(2-hydroxy-ethyl)-butyramide] | 0.013 µM | 125% | 134% | 135% | –
19 | CN(C(=O)CC[C@@H](C1CCCCC1)N1Cc2cc(Oc3ccccc3)ccc2N=C1N)[C@H]1CC[C@@H](C(=O)O)CC1 [Compound 739, (S)-enantiomer of 4-cis-{[4-(2-Amino-6-phenoxy-4H-quinazolin-3-yl)-4-cyclohexyl-butyryl]-methyl-amino}-cyclohexanecarboxylic acid] | 0.005 µM | 99% | 104% | 105% | –
20 | CN(C(=O)CC[C@@H](C1CCCCC1)N1Cc2cc(Oc3ccccc3)ccc2N=C1N)[C@H]1CC[C@H](C(=O)O)CC1 [Compound 740] | 0.037 µM | 82% | 98% | 104% | –
21 | CCOC(=O)C1CCC(N(C)C(=O)CCC(C2CCOCC2)N2Cc3cc(Oc4ccccc4)ccc3N=C2N)CC1 (stereo not shown) [Compound 742] | 0.168 µM | 17% | 63% | 101% | –
22 | COC(=O)[C@H]1CC[C@@H](N(C)C(=O)CC[C@@H](C2CCOCC2)N2Cc3cc(Oc4ccccc4)ccc3N=C2N)CC1 [Compound 744] | 0.031 µM | 91% | 108% | 112% | –
23 | CN(C(=O)CC[C@@H](C1CCOCC1)N1Cc2cc(Oc3ccccc3)ccc2N=C1N)[C@H]1CC[C@H](C(=O)O)CC1 [Compound 746] | 0.035 µM | 85% | 104% | 112% | –
24 | NC1=Nc2ccc(Oc3ccccc3)cc2CN1[C@@H](CCC(=O)N(CCO)[C@H]1CC[C@@H](C(=O)O)CC1)C1CCCCC1 [Compound 749, (S)-Enantiomer of 4-cis-[[4-(2-Amino-6-phenoxy-4H-quinazolin-3-yl)-4-cyclohexyl-butyryl]-(2-hydroxy-ethyl)-amino]-cyclohexanecarboxylic acid] | 0.017 µM | 113% | 112% | 115% | –
25 | NC1=Nc2ccc(Oc3ccccc3)cc2CN1[C@@H](CCC(=O)N(CCO)[C@H]1CC[C@@H](C(=O)O)CC1)C1CCOCC1 [Compound 750, (S)-Enantiomer of 4-cis-[[4-(2-Amino-6-phenoxy-4H-quinazolin-3-yl)-4-(tetrahydro-pyran-4-yl)-butyryl]-(2-hydroxy-ethyl)-amino]-cyclohexanecarboxylic acid] | 0.005 µM | 115% | 114% | 116% | –

From US8383637B2, “2-amino-quinazoline derivatives useful as inhibitors of β-secretase (BACE)” (Jansssen Pharmaceutica N.V., priority 2004, dated 2013)
